Test results taken from BindingDB's records for doi:10.1016/j.bmcl.2004.10.029 (Glaxosmithkline, 2005).

Tests used:
[1] = target: T1, Dimer of Gag-Pol polyprotein [501-599,Q508K,L534I,L564I,C568A,C596A] (Human immunodeficiency virus 1, UniProt P03367, C568A/C596A/L534I/L564I/Q508K); assay: Protease Inhibition Assay; conditions: pH 6.4; 25 °C
T1 construct: 501-599
Method: The Ki values were determined using fluorogenic substrate, 2-(aminobenzoyl)-Thr-Ile-Nle-Phe(p-NO2)-Gln-ArgNH2. A standard curve relating changes in fluorescent intensity to changes in concentration of product was used to convert fluorescent changes into molar velocities. The amount of cleavage was determined by HPLC.

[2] = target: T1, Dimer of Gag-Pol polyprotein [501-599,Q508K,L534I,L564I,C568A,C596A]; assay: Protease Inhibition Assay; conditions: pH 6.4; 25 °C; remark: listed apart in the source

O=C(N[C@H]1c2ccccc2C[C@H]1O)[C@H](Cc1ccc(OCCOC(=O)N2CCOCC2)cc1)C[C@H](O)CN1C(=O)[C@@H](Cc2ccccc2)C[C@@H]1Cc1ccccc1 [2-{4-[(2R)-2-[(2S)-3-[(3S,5R)-3,5-dibenzyl-2-oxopyrrolidin-1-yl]-2-hydroxypropyl]-2-{[(1S,2R)-2-hydroxy-2,3-dihydro-1H-inden-1-yl]carbamoyl}ethyl]phenoxy}ethyl morpholine-4-carboxylate]
Ki [1]: 0.05 nM | IC50 [2]: 240 nM

O=C(N[C@H]1c2ccccc2C[C@H]1O)[C@H](Cc1ccc(Cc2ccccc2)cc1)C[C@H](O)CN1C(=O)[C@@H](Cc2ccccc2)C[C@@H]1Cc1ccccc1 [(2R,4S)-2-[(4-benzylphenyl)methyl]-5-[(3S,5R)-3,5-dibenzyl-2-oxopyrrolidin-1-yl]-4-hydroxy-N-[(1S,2R)-2-hydroxy-2,3-dihydro-1H-inden-1-yl]pentanamide]
Ki [1]: 0.11 nM | IC50 [2]: 920 nM

O=C(N[C@H]1c2ccccc2C[C@H]1O)[C@H](Cc1ccccc1)C[C@H](O)CN1C(=O)[C@@H](Cc2ccccc2)C[C@@H]1Cc1ccc(OCC(=O)N2CCOCC2)cc1 [pyrrolidinone based inhibitor 1k]
Ki [1]: 0.1 nM | IC50 [2]: 200 nM

O=C(N[C@H]1c2ccccc2C[C@H]1O)[C@H](Cc1ccccc1)C[C@H](O)CN1C(=O)[C@@H](Cc2ccccc2)C[C@@H]1Cc1ccccc1 [pyrrolidinone scaffold 8b]
IC50 [2]: 0.05 nM

NC(=O)COc1ccc(C[C@H](C[C@H](O)CN2C(=O)[C@@H](Cc3ccccc3)C[C@@H]2Cc2ccccc2)C(=O)N[C@H]2c3ccccc3C[C@H]2O)cc1 [(2R,4S)-2-{[4-(carbamoylmethoxy)phenyl]methyl}-5-[(3S,5R)-3,5-dibenzyl-2-oxopyrrolidin-1-yl]-4-hydroxy-N-[(1S,2R)-2-hydroxy-2,3-dihydro-1H-inden-1-yl]pentanamide]
Ki [1]: 0.07 nM | IC50 [2]: 360 nM

O=C(N[C@H]1c2ccccc2C[C@H]1O)[C@H](Cc1ccc(OCc2ccccn2)cc1)C[C@H](O)CN1C(=O)[C@@H](Cc2ccccc2)C[C@@H]1Cc1ccccc1 [(2R,4S)-5-[(3S,5R)-3,5-dibenzyl-2-oxopyrrolidin-1-yl]-4-hydroxy-N-[(1S,2R)-2-hydroxy-2,3-dihydro-1H-inden-1-yl]-2-{[4-(pyridin-2-ylmethoxy)phenyl]methyl}pentanamide]
Ki [1]: 0.07 nM | IC50 [2]: 380 nM

O=C(N[C@H]1c2ccccc2C[C@H]1O)[C@H](Cc1ccccc1)C[C@H](O)CN1C(=O)[C@@H](Cc2ccccc2)C[C@@H]1Cc1ccc(OCCO)cc1 [(2R,4S)-2-benzyl-5-[(3S,5R)-3-benzyl-5-{[4-(2-hydroxyethoxy)phenyl]methyl}-2-oxopyrrolidin-1-yl]-4-hydroxy-N-[(1S,2R)-2-hydroxy-2,3-dihydro-1H-inden-1-yl]pentanamide]
Ki [1]: 0.3 nM | IC50 [2]: 480 nM

O=C(N[C@H]1c2ccccc2C[C@H]1O)[C@H](Cc1ccc(OCCN2CCOCC2)cc1)C[C@H](O)CN1C(=O)[C@@H](Cc2ccccc2)C[C@@H]1Cc1ccccc1 [(2R,4S)-5-[(3S,5R)-3,5-dibenzyl-2-oxopyrrolidin-1-yl]-4-hydroxy-N-[(1S,2R)-2-hydroxy-2,3-dihydro-1H-inden-1-yl]-2-({4-[2-(morpholin-4-yl)ethoxy]phenyl}methyl)pentanamide]
Ki [1]: 0.14 nM | IC50 [2]: 83 nM

COCCOCCOc1ccc(C[C@H](C[C@H](O)CN2C(=O)[C@@H](Cc3ccccc3)C[C@@H]2Cc2ccccc2)C(=O)N[C@H]2c3ccccc3C[C@H]2O)cc1 [(2R,4S)-5-[(3S,5R)-3,5-dibenzyl-2-oxopyrrolidin-1-yl]-4-hydroxy-N-[(1S,2R)-2-hydroxy-2,3-dihydro-1H-inden-1-yl]-2-({4-[2-(2-methoxyethoxy)ethoxy]phenyl}methyl)pentanamide]
Ki [1]: 0.02 nM | IC50 [2]: 93 nM

O=C(N[C@H]1c2ccccc2C[C@H]1O)[C@H](Cc1ccc(O)cc1)C[C@H](O)CN1C(=O)[C@@H](Cc2ccccc2)C[C@@H]1Cc1ccccc1 [(2R,4S)-5-[(3S,5R)-3,5-dibenzyl-2-oxopyrrolidin-1-yl]-4-hydroxy-N-[(1S,2R)-2-hydroxy-2,3-dihydro-1H-inden-1-yl]-2-[(4-hydroxyphenyl)methyl]pentanamide]
Ki [1]: 0.06 nM | IC50 [2]: 320 nM

O=C(N[C@H]1c2ccccc2C[C@H]1O)[C@H](Cc1ccc(OCC(=O)N2CCOCC2)cc1)C[C@H](O)CN1C(=O)[C@@H](Cc2ccccc2)C[C@@H]1Cc1ccccc1 [(2R,4S)-5-[(3S,5R)-3,5-dibenzyl-2-oxopyrrolidin-1-yl]-4-hydroxy-N-[(1S,2R)-2-hydroxy-2,3-dihydro-1H-inden-1-yl]-2-({4-[2-(morpholin-4-yl)-2-oxoethoxy]phenyl}methyl)pentanamide]
Ki [1]: 0.02 nM | IC50 [2]: 63 nM

O=C(N[C@H]1c2ccccc2C[C@H]1O)[C@H](Cc1ccc(OCCO)cc1)C[C@H](O)CN1C(=O)[C@@H](Cc2ccccc2)C[C@@H]1Cc1ccccc1 [(2R,4S)-5-[(3S,5R)-3,5-dibenzyl-2-oxopyrrolidin-1-yl]-4-hydroxy-N-[(1S,2R)-2-hydroxy-2,3-dihydro-1H-inden-1-yl]-2-{[4-(2-hydroxyethoxy)phenyl]methyl}pentanamide]
Ki [1]: 0.02 nM | IC50 [2]: 94 nM

O=C(N[C@H]1c2ccccc2C[C@H]1O)[C@H](Cc1ccccc1)C[C@H](O)CN1C(=O)[C@@H](Cc2ccccc2)C[C@@H]1Cc1ccc(O)cc1 [(2R,4S)-2-benzyl-5-[(3S,5R)-3-benzyl-5-[(4-hydroxyphenyl)methyl]-2-oxopyrrolidin-1-yl]-4-hydroxy-N-[(1S,2R)-2-hydroxy-2,3-dihydro-1H-inden-1-yl]pentanamide]
IC50 [2]: 200 nM

O=C(N[C@H]1c2ccccc2C[C@H]1O)[C@H](Cc1ccccc1)C[C@H](O)CN1C(=O)[C@@H](Cc2ccccc2)C[C@@H]1Cc1ccc(Cc2ccccc2)cc1 [(2R,4S)-2-benzyl-5-[(3S,5R)-3-benzyl-5-[(4-benzylphenyl)methyl]-2-oxopyrrolidin-1-yl]-4-hydroxy-N-[(1S,2R)-2-hydroxy-2,3-dihydro-1H-inden-1-yl]pentanamide]
Ki [1]: 0.13 nM | IC50 [2]: 550 nM

O=C(N[C@H]1c2ccccc2C[C@H]1O)[C@H](Cc1ccccc1)C[C@H](O)CN1C(=O)[C@@H](Cc2ccccc2)C[C@@H]1Cc1ccc(OCCN2CCOCC2)cc1 [pyrrolidinone based inhibitor 1g]
Ki [1]: 1.3 nM | IC50 [2]: 960 nM

CN1CCN(C(=O)COc2ccc(C[C@H](C[C@H](O)CN3C(=O)[C@@H](Cc4ccccc4)C[C@@H]3Cc3ccccc3)C(=O)N[C@H]3c4ccccc4C[C@H]3O)cc2)CC1 [(2R,4S)-5-[(3S,5R)-3,5-dibenzyl-2-oxopyrrolidin-1-yl]-4-hydroxy-N-[(1S,2R)-2-hydroxy-2,3-dihydro-1H-inden-1-yl]-2-({4-[2-(4-methylpiperazin-1-yl)-2-oxoethoxy]phenyl}methyl)pentanamide]
Ki [1]: 0.05 nM | IC50 [2]: 130 nM
